For 32 molecules, inhibition in vivo results are on record in patent publication EP0528699B1, “Saishin N derivatives, process for their preparation and anti-ulcer agents containing them” (TOKYO TANABE COMPANY LIMITED, priority 1991, dated 1993).

The assay deals with Hydrochloric acid-Ethanol-Induced Ulcers. As to the kind of experiment: Hydrochloric acid-Ethanol-Induced Ulcers. Type of assay: in vivo, male Wister rats. The following applies: Rattus norvegicus, intraduodenal, read-out: Inhibition ratio(%). The protocol:
Experiments on Hydrochloric acid-Ethanol-Induced Ulcers, Aspirin-Induced Ulcers, Water-Immersion stress-Induced Ulcers, Shay's Ulcers and Serotonin-Induced Ulcers were carried out using male Wister rats weighing about 200g in groups of six. Experiments on Ischemia-Reperfusion -Induced Gastric Lesions were carried out using male SD rats weighing about 250g in groups of six. Other than for the tests on Ischemia-Reperfusion-Induced Gastric Lesions Models, the test compounds were prepared by mixing thoroughly with polyethyleneglycol and 0.5% sodium carboxymethyl cellulose solution and emulsifying vigorously. Activities against respective ulcer models were evaluated by an inhibiting ratio obtained by dividing the difference between the ulceration indexes of the non-administered group and the test compound group by the non-administered group.
To each rat which had been fasted for 24 hours was orally administered 0.5ml of a mixed solution of 150 mM hydrochloric acid - 60% ethanol per 100g of weight. Each rat was slaughtered after one hour, a length of ulcer formed at the fundus gland area of stomach was measured and ulceration index was calculated based on the length. The test compound was administered intraduodenally one hour or three hours before the administration of mixed solution of hydrochloric acid - 60% ethanol.

The mark [1] stands for this setting: 3 h, Table 1, dose 20 mg/kg intraduodenally three hours before hydrochloric acid - 60% ethanol.

Read-outs that look alike come from different tables or passages of the source.

`COc1cc(C=CC(=O)OC2C=C(C)C3(OC)CC(C)(C)C2O3)ccc1O` (centres unmarked) [AU417, 4-(4-hydroxy-3-methoxycinnamoyloxy)-1-methoxy-2,6,6-trimethyl-8-oxabicyclo [3.2.1] oct-2-ene]: the inhibition in vivo at 20 mg/kg under setting [1] is 69%.
Same read-out and setting: then `CC1=CC(=O)C(OC(=O)c2ccccc2)C(C)(C)CC1=O` (centres unmarked) [AU225, 5-benzoyloxy-2,6,6-trimethyl-2-cyclohepten-1,4-dione], with 36%.
Still for that read-out and setting: then `COc1ccc(C(=O)OC2C=C(C)C(=O)CC(C)(C)C2O)cc1OC` (centres unmarked) [AU133, 4-(3,4-dimethoxybenzoyloxy)-5-hydroxy-2,6,6-trimethyl-2-cyclohepten-1-one], with 38%; and `CC(=O)Oc1ccc(C(=O)OC2C=C(C)C(=O)CC(C)(C)C2O)cc1` (centres unmarked) [AU217, 4-(4-acetoxybenzoyloxy)-5-hydroxy-2,6,6-trimethyl-2-cyclohepten-1-one], with 48%; and `COC1C=C(C)C(=O)CC(C)(C)C1OC(=O)Cc1csc(N)n1` (centres unmarked) [AU243, 5-(2-aminothiazol-4-yl) acetoxy-4-methoxy-2,6,6-trimethyl-2-cyclohepten-1-one], with 29%.
`CC1=CC(=O)C2OC1(OC(=O)c1ccccc1)CC2(C)C` (centres unmarked) [AU168, 1-benzoyloxy-2,6,6-trimethyl-8-oxabicyclo [3.2.1] oct-2-en-4-one]: under setting [1], the inhibition in vivo at 20 mg/kg turned out to be 46%.
Still for that read-out and setting: then `COC1CC(C)C(=O)CC(C)(C)C1OC(=O)c1ccccc1` (stereo not drawn) [AU123B, 2,4-cis-5-benzoyloxy-4-methoxy-2,6,6-trimethyl cycloheptan-1-one], with 25%; and `CC(C)=CCOC1CC(C)(C)C(O)C(OC(=O)c2ccccc2)C=C1C` (centres unmarked) [AU144, 4-benzoyloxy-1-(3-methyl-2-buten-1-yloxy)-2,6,6-trimethyl-2-cyclohepten-5-ol], with 51%; and `COc1ccc(C(=O)OC2C=C(C)C(=O)CC(C)(C)C2O)cc1` (centres unmarked) [AU195, 5-hydroxy-4-(4-methoxybenzoyloxy)-2,6,6-trimethyl-2-cyclohepten-1-one], with 40%.
On to `CC1=CC(O)C(OC(=O)c2ccccc2)C(C)(C)CC1=O` (centres unmarked) [AU183, 5-benzoyloxy-4-hydroxy-2,6,6-trimethyl-2-cyclohepten-1-one], for which the inhibition in vivo at 20 mg/kg under setting [1] was found to be 73%.
For `COC1C(OC(=O)c2ccc([N+](=O)[O-])cc2)C=C(C)C(=O)CC1(C)C` (centres unmarked) [AU238, 5-methoxy-4-(4-nitrobenzoyloxy)-2,6,6-trimethyl-2-cyclohepten-1-one], the inhibition in vivo at 20 mg/kg under setting [1] is 40%.
`CC(=O)OC1C(OC(=O)C=Cc2ccccc2)C=C(C)C(=O)CC1(C)C` (centres unmarked) [AU208, 5-acetoxy-4-cinnamoyloxy-2,6,6-trimethyl-2-cyclohepten-1-one]: the inhibition in vivo at 20 mg/kg under setting [1] was 39%.
Regarding `CC1=CC(OC(=O)c2ccc([N+](=O)[O-])cc2Cl)C(O)C(C)(C)CC1=O` (centres unmarked) [AU219, 4-(2-chloro-4-nitrobenzoyloxy)-5-hydroxy-2,6,6-trimethyl-2-cyclohepten-1-one], the inhibition in vivo at 20 mg/kg under setting [1] amounted to 60%.
Still for that read-out and setting: under `CC1=CC(O)C(OC(=O)c2ccc(N)cc2N)C(C)(C)CC1=O` (centres unmarked) [AU241, 5-(2,4-diaminobenzoyloxy)-4-hydroxy-2,6,6-trimethyl-2-cyclohepten-1-one] stands 37%.
As to `COC12CC(C)(C)C(O)C(C=C1C)O2` (centres unmarked) [AU153, 1-methoxy-3,3,7-trimethyl-8-oxabicyclo [3.2.1] oct-6-en-4-ol], the inhibition in vivo at 10 mg/kg (1 h, Table 2, dose 10 mg/kg intraduodenally one hour before hydrochloric acid - 60% ethanol) turned out to be 55%.
Turning to `CC1=CC(OC(=O)c2ccco2)C(O)C(C)(C)CC1=O` (centres unmarked) [AU403, 4-(2-furoyloxy)-5-hydroxy-2,6,6-trimethyl-2-cyclohepten-1-one], the inhibition in vivo at 20 mg/kg under setting [1] worked out at 31%.
For `CC1=CC(OC(=O)c2ccc(N(C)C)cc2)C(O)C(C)(C)CC1=O` (centres unmarked) [AU236, 4-(4-dimethylaminobenzoyloxy)-5-hydroxy-2,6,6-trimethyl-2-cyclohepten-1-one], under setting [1], the inhibition in vivo at 20 mg/kg stood at 45%.
For `CC(=O)OC1C=C(C)C(=O)CC(C)(C)C1OC(=O)C=Cc1ccccc1` (centres unmarked) [AU207, 4-acetoxy-5-cinnamoyloxy-2,6,6-trimethyl-2-cyclohepten-1-one], under setting [1], the inhibition in vivo at 20 mg/kg came to 56%.
For `COC1C=C(C)C(=O)CC(C)(C)C1OC(=O)c1ccc2nc[nH]c2c1` (centres unmarked) [AU507, 5-(5-benzimidazolylcarbonyloxy)-4-methoxy-2,6,6-trimethyl-2-cyclohepten-1-one], under setting [1], the inhibition in vivo at 20 mg/kg is 63%.
Take `CC(=O)OC1C(OC(=O)c2ccc(N)cc2)C=C(C)C(=O)CC1(C)C` (centres unmarked) [AU197, 5-acetoxy-4-(4-aminobenzoyloxy)-2,6,6-trimethyl-2-cyclohepten-1-one]: under setting [1], the inhibition in vivo at 20 mg/kg was 44%.
On the same count and under the same terms, then `COC1C=C(C)C(=O)CC(C)(C)C1OC(=O)c1ccc(N)c(N)c1` (centres unmarked) [AU410, 5-(3,4-diaminobenzoyloxy)-4-methoxy-2,6,6-trimethyl-2-cyclohepten-1-one], with 75%.
As for `COC12CC(C)(C)C(O1)C(OC(C)=O)C=C2C` (centres unmarked) [AU158, 4-acetoxy-1-methoxy-2,6,6-trimethyl-8-oxabicyclo [3.2.1] oct-2-ene], for the setting “1 h, Table 2, dose 5 mg/kg intraduodenally one hour before hydrochloric acid - 60% ethanol”, the inhibition in vivo at 5 mg/kg was 33%.
For `COC1CC(C)(C)C(OC(=O)c2ccccc2)C(O)C=C1C` (centres unmarked) [AU115, 5-benzoyloxy-1-methoxy-2,6,6-trimethyl-2-cyclohepten-4-ol], the inhibition in vivo at 20 mg/kg under setting [1] was 83%.
Same read-out and setting: then `COC1C=C(C)C(=O)CC(C)(C)C1OC(=O)c1ccccc1` (centres unmarked) [AU121, 5-benzoyloxy-4-methoxy-2,6,6-trimethyl-2-cyclohepten-1-one], with 50%; and `COC12CC(C)(C)C(O1)C(=O)CC2C` (centres unmarked) [AU163, 1-methoxy-2,6,6-trimethyl-8-oxabicyclo [3.2.1] octan-4-one], with 32%.
With `CC1=CC(O)C(OC(=O)c2ccccc2Cl)C(C)(C)CC1=O` (centres unmarked) [AU127, 5-(2-chlorobenzoyloxy)-4-hydroxy-2,6,6-trimethyl-2-cyclohepten-1-one], the inhibition in vivo at 20 mg/kg under setting [1] was 87%.
As to `CC1=CC(O)C(OC(=O)c2ccc(Cl)cc2)C(C)(C)CC1=O` (centres unmarked) [AU128, 5-(4-chlorobenzoyloxy)-4-hydroxy-2,6,6-trimethyl-2-cyclohepten-1-one], under setting [1], the inhibition in vivo at 20 mg/kg stood at 53%.
In the case of `CC1CC(O)C(OC(=O)c2ccccc2)C(C)(C)CC1=O` (stereo not drawn) [AU191, 2,4-cis-5-benzoyloxy-4-hydroxy-2,6,6-trimethyl cycloheptan-1-one], under setting [1], the inhibition in vivo at 20 mg/kg turned out to be 53%.
For the molecule `COC1CC(C)(C)C(OC(C)=O)C(OC(C)=O)C=C1C` (centres unmarked) [AU112, 4,5-diacetoxy-1-methoxy-2,6,6-trimethyl-2-cycloheptene], the inhibition in vivo at 20 mg/kg under setting [1] was 45%.
`COC12CC(C)(C)C(O1)C(O)C=C2C` (centres unmarked) [AU152, 1-methoxy-2,6,6-trimethyl-8-oxabicyclo [3.2.1] oct-2-en-4-ol]: the inhibition in vivo at 20 mg/kg (1 h, Table 2, dose 20 mg/kg intraduodenally one hour before hydrochloric acid - 60% ethanol) came to 87%.
Take `CC(=O)Nc1ccc(C(=O)OC2C=C(C)C(=O)CC(C)(C)C2O)cc1` (centres unmarked) [AU237, 4-(4-acetamidobenzoyloxy)-5-hydroxy-2,6,6-trimethyl-2-cyclohepten-1-one]: the inhibition in vivo at 20 mg/kg under setting [1] is 30%.
Take `COc1cc(C=CC(=O)OC2C=C(C)C(=O)CC(C)(C)C2O)ccc1O` (centres unmarked) [AU416, 5-hydroxy-4-(4-hydroxy-3-methoxycinnamoyloxy)-2,6,6-trimethyl-2-cyclohepten-1-one]: under setting [1], the inhibition in vivo at 20 mg/kg turned out to be 72%.
